The compounds below were run on Ba/F3 ERBB2 YVMA (assay: Cell viability assay (CellTiter Glo), Ba/F3 cells engineered to express ERBB2 YVMA). Conditions: Mus musculus, BaF3, 72 h, Ba/F3 cells expressing human ERBB2 YVMA mutant; 72 hours; cell viability, CellTiter Glo; read-out: Ba/F3 ERBB2 YVMA, IC50.
Format: cell-based
Experimental: Cells were treated with compounds, and cell viability was measured as a metric of kinase inhibition.
BT-474, A431, MDA-MB-175VII, NCI-H1781, MCF7, and Ba/F3 cell lines were tested. The Ba/F3 cell line is IL-3-dependent mouse cell line derived from the C3H mouse strain. Ba/F3 cell lines were engineered to express human ERBB2 or EGFR kinases, rendering the cells IL-3 independent. The lines were generated via retroviral transduction utilizing a Moloney murine leukemia virus (MMLV) promoter, and constructs are stably integrated into the cell genome. The sequences of the ERBB2 and EGFR genes used were NCBI Reference Sequences NM 004448.3 and NM 005228.3, respectively.
BT-474, A431, MDA-MB-175VII, NCI-H1781 and MCF7 cells were grown in the appropriate growth medium as described in Table B2 below, and harvested at 50-80% confluence. BT-474, A431, MDA-MB-175VII, NCI-H1781 and MCF7 cells were counted and seeded at 2,000 or 1,500 cells per well in 384-well tissue culture plates (see Table B2). Similarly, Ba/F3 cell lines engineered to express EGFR, ERBB2, or ERBB2 mutants were grown, harvested, counted and seeded at 3000 cells per well in 96-well plates. A subset of wells contained media only (low control, “LC”).
Table B1 provides the growth media and number of cells seeded per well for the each cell line.
Compounds were dissolved in DMSO and serially diluted. Serially-diluted compound or a DMSO only control (high control, “HC”) was added to the plated cells in each well. Compounds were tested at concentrations of about 10 μM to 0.51 nM, using three-fold dilutions. The final proportion of DMSO never exceeded 0.1%.
Plates were placed in a 37° C., 5% CO2 incubator for 72 hours. Plates were then removed from the incubator and equilibrated for 15 minutes at room temperature. […] of CellTiter Glo reagent (Promega) was added to measure the relative level of metabolically active cells by quantifying intracellular ATP concentrations. Plates were incubated for 30 minutes at room temperature, and luminescence was measured. Percent viability was normalized to a vehicle control only using the following formula: % viability=100×(Lumsample−LumLC)/(LumHC−LumLC). Graphical curves were fitted using a nonlinear regression model with a sigmoidal dose response.

SMILES | IC50 [nM]
Cc1cc(Nc2ncnc3cc4c(nc23)N2CCN(C(=O)/C=C/CN(C)C)[C@H](CO4)C2)ccc1Oc1ccc2c(c1)ncn2C [Compound 6, (E)-4-(dimethylamino)-1-((10S)-4-((3-methyl-4-((1-methyl-1H-benzo[d]imidazol-5-yl)oxy)phenyl)amino)-7,8,10,11-tetrahydro-9H-6,10-methanopyrimido[4′,5′: 5,6]pyrido[3,2-b][1,4,7]oxadiazonin-9-yl)but-2-en-1-one] | 15.8
Cc1cc(Nc2ncnc3cc4c(cc23)N2CCN(C(=O)/C=C/CN(C)C)[C@H](CO4)C2)ccc1Oc1ccc2c(c1)ncn2C [Compound 7, (E)-4-(dimethylamino)-1-((10S)-4-((3-methyl-4-((1-methyl-1H-benzo[d]imidazol-5-yl)oxy)phenyl)amino)-7,8,10,11-tetrahydro-9H-6,10-methano[1,4,7]oxadiazonino[3,2-g]quinazolin-9-yl)but-2-en-1-one] | 78.7
Cc1cc(Nc2ncnc3cc4c(cc23)N2CCN(C(=O)/C=C/CN(C)C)[C@@H](CO4)C2)ccc1Oc1ccn2ncnc2c1 [Compound 8, (E)-1-((10R)-4-((4-([1,2,4]triazolo[1,5-a]pyridin-7-yloxy)-3-methylphenyl)amino)-7,8,10,11-tetrahydro-9H-6,10-methano[1,4,7]oxadiazonino[3,2-g]quinazolin-9-yl)-4-(dimethylamino)but-2-en-1-one] | > 500
Cc1cc(Nc2ncnc3cc4c(cc23)N2CCN(C(=O)/C=C/CN(C)C)[C@H](CO4)C2)ccc1Oc1ccn2ncnc2c1 [Compound 9, (E)-1-((10S)-4-((4-([1,2,4]triazolo[1,5-a]pyridin-7-yloxy)-3-methylphenyl)amino)-7,8,10,11-tetrahydro-9H-6,10-methano[1,4,7]oxadiazonino[3,2-g]quinazolin-9-yl)-4-(dimethylamino)but-2-en-1-one] | 85.9
Cc1cc(Nc2ncnc3cc4c(nc23)N2CCN(C(=O)/C=C/CN(C)C)[C@H](CO4)C2)ccc1Oc1ccn2ncnc2c1 [Compound 10, (E)-1-((10S)-4-((4-([1,2,4]triazolo[1,5-a]pyridin-7-yloxy)-3-methylphenyl)amino)-7,8,10,11-tetrahydro-9H-6,10-methanopyrimido[4′,5′:5,6]pyrido[3,2-b][1,4,7]oxadiazonin-9-yl)-4-(dimethylamino)but-2-en-1-one] | 7.02
CC#CC(=O)N1CCN2C[C@H]1COc1cc3ncnc(Nc4ccc(Oc5ccc6c(c5)ncn6C)c(C)c4)c3cc12 [Compound 11] | 37.7
CC#CC(=O)N1CCN2C[C@H]1COc1cc3ncnc(Nc4ccc(Oc5ccn6ncnc6c5)c(C)c4)c3cc12 [Compound 12, 1-((10S)-4-((4-([1,2,4]triazolo[1,5-a]pyridin-7-yloxy)-3-methylphenyl)amino)-7,8,10,11-tetrahydro-9H-6,10-methano[1,4,7]oxadiazonino[3,2-g]quinazolin-9-yl)but-2-yn-1-one] | 44
Cc1cc(Nc2ncnc3cc4c(nc23)N2CCN(C(=O)/C=C/CN(C)C)[C@@H](CO4)C2)ccc1Oc1ccn2ncnc2c1 [Compound 15, (E)-1-((10R)-4-((4-([1,2,4]triazolo[1,5-a]pyridin-7-yloxy)-3-methylphenyl)amino)-7,8,10,11-tetrahydro-9H-6,10-methanopyrimido[4′,5′:5,6]pyrido[3,2-b][1,4,7]oxadiazonin-9-yl)-4-(dimethylamino)but-2-en-1-one] | 82.3
CC#CC(=O)N1CCN2C[C@H]1COc1cc3ncnc(Nc4ccc(Oc5ccc6c(c5)ncn6C)c(C)c4)c3nc12 [Compound 16, 1-((10S)-4-((3-methyl-4-((1-methyl-1H-benzo[d]imidazol-5-yl)oxy)phenyl)amino)-7,8,10,11-tetrahydro-9H-6,10-methanopyrimido[4′,5′:5,6]pyrido[3,2-b][1,4,7]oxadiazonin-9-yl)but-2-yn-1-one] | 14
